Assay results as given in US5239058A, “Proteins having anticoagulant properties” (Merck & Co., Inc., priority 1992, dated 1993).

What was measured:
Normal Human Plasma [1] = assay: Prothrombin Time, plasma based clotting assay; format: biochemical
urokinase = biological target: T1, urokinase (Homo sapiens, UniProt P00749); assay: urokinase chromogenic enzyme assay (Spectrozyme UK); format: biochemical; details: 300-fold molar excess of TAP-1 over protease
T1 construct: purchased Calbiochem
From the text: (§1) Ornithodoros moubata ticks were obtained from South Africa through Antibody Associates, Inc. (Bedford, Tex.). Colorimetric substrates were purchased from Helena Labs, American Diagnostica, and Chemical Dynamics. Human Factor Xa was from Enzyme Research Laboratories. Human plasmin, urokinase, and bovine thrombin were from Calbiochem; bovine trypsin, chymotrypsin, and pancreatic elastase were from Worthington Enzymes, Inc. Plasma kallikrein, carboxypeptidase Y, S. aureus V8 protease and protease inhibitors were from Sigma. Two chain tPA was from American Diagnostica.
(§2) Assays were carried out at room temperature in 96-well microtiter plates. […] The concentration of Factor Xa was determined by active site titration. The concentrations of working solutions of the other proteases were determined spectrophotometrically using published extinction coefficients. The concentration of purified inhibitor was determined by quantitative amino acid analysis. […]
(§3) Because the TAP-1 was pre-incubated with the human Factor Xa to establish equilibrium in the absence of substrate, a value for the intrinsic Ki irrespective of the mechanism was calculated (solid line) using the equation for tight binding inhibition described in the article by Morrison, J. F. in Biochem. Biophys. […]

plasmin = biological target: T2, plasmin (Homo sapiens, UniProt P00747); assay: plasmin chromogenic enzyme assay (Spectrozyme PL); format: biochemical; details: 300-fold molar excess of TAP-1 over protease
T2 construct: Human plasmin, urokinase, and bovine thrombin were from Calbiochem; purchased Calbiochem
From the text: as §1, §2, §3

Normal Human Plasma [2] = assay: Activated Partial Thromboplastin Time, plasma based clotting assay; format: biochemical
Normal Human Plasma [3] = assay: Modified Stypven Time, plasma based clotting assay; format: biochemical
human Factor Xa = biological target: T3, human Factor Xa (Homo sapiens, UniProt P00742); assay: Factor Xa chromogenic enzyme assay (Spectrozyme Xa); format: biochemical; details: for Ki: inhibitor pre-incubated with human Factor Xa, tight binding equation, read-out: Ki for inhibition of Factor Xa
T3 construct: purchased Enzyme Research Laboratories
Experimental: (§4) Assays were carried out at room temperature in 96-well microtiter plates. The color developed from the hydrolysis of peptide-nitroanilide substrates was monitored continuously at 405 nM on a Vmax machine (Molecular Devices). The concentration of Factor Xa was determined by active site titration. The concentrations of working solutions of the other proteases were determined spectrophotometrically using published extinction coefficients. The concentration of purified inhibitor was determined by quantitative amino acid analysis. […] In the case of human Factor Xa, the buffers also included 0.1% BSA; for S. aureus V8 protease the buffer was 50 mM NH4 HCo3. The substrates used were: Spectrozyme Xa (Factor Xa), S-2238 (thrombin), S-2356 (chymotrypsin), S-2366 (Factor XIa) Boc-AlaAla-Pro-Ala-pNA (elastase), Spectrozyme Pkal (kallikrein), Spectrozyme PL (plasmin), Spectrozyme UK (urokinase) Z-Phe-Leu-Glu-pNA (S. aureus V8 protease) and Spectrozyme tPA for tPA. Factor VIIa was assayed by measuring the release of the ^3 H-activation peptide from human Factor X. For kinetic analyses, assays were carried for up to 10 min. followed by estimation of the initial rate where less than 5% of the added substrate was utilized.
Because the TAP-1 was pre-incubated with the human Factor Xa to establish equilibrium in the absence of substrate, a value for the intrinsic Ki irrespective of the mechanism was calculated (solid line) using the equation for tight binding inhibition described in the article by Morrison, J. F. in Biochem. Biophys. Acta 185,269 (1969). The effect on TAP-1 on various proteases also was tested.

Plasma kallikrein = biological target: T4, Plasma kallikrein (Homo sapiens, UniProt P03952); assay: kallikrein chromogenic enzyme assay (Spectrozyme Pkal); format: biochemical; details: 300-fold molar excess of TAP-1 over protease
T4 construct: purchased Sigma
From the text: as §1, §2, §3

chymotrypsin = biological target: T5, chymotrypsin (Bos taurus, UniProt P00766); assay: chymotrypsin chromogenic enzyme assay (S-2356); format: biochemical, bovine; details: 300-fold molar excess of TAP-1 over protease
T5 construct: purchased Worthington Enzymes, Inc
From the text: as §1, §2, §3

S. aureus V8 protease = S. aureus V8 protease (Staphylococcus aureus, UniProt P0C1U8); details: 300-fold molar excess of TAP-1 over protease
From the text: as §1, §2, §3

thrombin = biological target: T6, thrombin (Bos taurus, UniProt P00735); assay: thrombin chromogenic enzyme assay (S-2238); format: biochemical, bovine; details: 300-fold molar excess of TAP-1 over protease
T6 construct: responsible for the Factor Xa conversion of prothrombin to thrombin in vivo; purchased Calbiochem
From the text: as §1, §2, §3

pancreatic elastase = biological target: T7, pancreatic elastase (Sus scrofa, UniProt P00772); assay: elastase chromogenic enzyme assay (Boc-AlaAla-Pro-Ala-pNA); format: biochemical; details: 300-fold molar excess of TAP-1 over protease
T7 construct: purchased Worthington Enzymes, Inc
From the text: as §1, §2, §3

Factor VIIa = Factor VIIa (Homo sapiens, UniProt P08709); assay: Factor VIIa assay (release of 3H-activation peptide from human Factor X); format: biochemical; details: 300-fold molar excess of TAP-1 over protease
Experimental: as §4, with “Factor VIIa was assayed by measuring the release of the ^3 H-activation peptide from human Factor X. For kinetic analyses, assays were carried for up to 10 min. followed by estimation of the initial rate where less than 5% of the added substrate was utilized.” left out
as §3

trypsin = biological target: T8, trypsin (Bos taurus, UniProt P00760); assay: trypsin chromogenic enzyme assay; format: biochemical, bovine; details: 300-fold molar excess of TAP-1 over protease
T8 construct: purchased Worthington Enzymes, Inc
T8 sequence (P00760 24-246): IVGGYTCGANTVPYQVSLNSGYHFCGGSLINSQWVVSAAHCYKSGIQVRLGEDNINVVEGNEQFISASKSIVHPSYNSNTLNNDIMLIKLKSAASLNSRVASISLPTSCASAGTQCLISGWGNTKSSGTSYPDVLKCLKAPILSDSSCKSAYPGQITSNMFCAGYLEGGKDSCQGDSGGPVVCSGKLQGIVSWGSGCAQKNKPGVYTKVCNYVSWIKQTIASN
From the text: as §1, §2, §3

prothrombin time = prothrombin time in infused rabbits; format: in vivo, rabbit; details: i.v. infusions of 7, 37 and 64 μg/kg/min
[4] = test system: thromboplastin-induced clot formation; assay: in vivo model of thromboplastin-induced clot formation (jugular vein); design: species or system rabbit; details: rabbits, untreated 29.2±3.4%
Experimental: An in vivo model of thromboplastin-induced clot formation similar to Van Ryn-McKenna, et al., (1989) Thrombosis and Haemostasis 61:7-9 was used to determine the efficacy of the Factor Xa inhibitor recombinant TAP-1. Rabbits were pretreated with an infusion of recombinant TAP-1 for 60 minutes, at which time a segment of the jugular vein was isolated and occluded. Thromboplastin and whole blood withdrawn from the carotid artery were injected into the segment in order to induce clot formation. The jugular vein remained occluded for 30 minutes before the clot was removed and quantitated.

[5] = test system: activated partial thromboplastin time; assay: activated partial thromboplastin time in infused rabbits; format: in vivo, rabbit; details: i.v. infusions of 7, 37 and 64 μg/kg/min
[6] = 28.9 pMol TAP-1, Normal Human Plasma
[7] = 57.8 pMol TAP-1, Normal Human Plasma
[8] = 115 pMol TAP-1, Normal Human Plasma

T3 sequence (P00742 235-488 limits assumed): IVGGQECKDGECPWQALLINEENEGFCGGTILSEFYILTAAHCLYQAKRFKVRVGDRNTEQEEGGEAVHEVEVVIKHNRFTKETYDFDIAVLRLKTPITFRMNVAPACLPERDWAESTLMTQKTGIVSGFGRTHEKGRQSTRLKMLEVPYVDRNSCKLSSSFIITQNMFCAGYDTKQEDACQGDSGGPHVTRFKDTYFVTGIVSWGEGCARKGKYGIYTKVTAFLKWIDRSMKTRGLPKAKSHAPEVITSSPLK
T3 sequence (P00742 41-179 partner limits assumed): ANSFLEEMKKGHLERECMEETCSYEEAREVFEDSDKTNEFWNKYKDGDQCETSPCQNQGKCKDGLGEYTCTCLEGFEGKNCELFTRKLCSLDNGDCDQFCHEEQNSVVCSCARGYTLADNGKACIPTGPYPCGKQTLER
Factor VIIa, sequence (P08709 213-466 limits assumed): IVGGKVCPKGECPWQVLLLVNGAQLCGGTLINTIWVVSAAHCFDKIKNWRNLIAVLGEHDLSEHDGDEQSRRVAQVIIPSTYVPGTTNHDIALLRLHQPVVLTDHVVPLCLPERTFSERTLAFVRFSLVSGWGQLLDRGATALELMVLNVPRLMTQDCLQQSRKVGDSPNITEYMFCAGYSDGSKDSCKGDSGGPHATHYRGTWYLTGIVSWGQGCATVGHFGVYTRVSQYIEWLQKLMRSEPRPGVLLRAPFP
Factor VIIa, sequence (P08709 61-212 partner limits assumed): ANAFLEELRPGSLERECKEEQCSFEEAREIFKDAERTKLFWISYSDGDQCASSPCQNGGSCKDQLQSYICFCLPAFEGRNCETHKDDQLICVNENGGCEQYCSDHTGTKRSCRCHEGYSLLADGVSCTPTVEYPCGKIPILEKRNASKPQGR
Factor VIIa, sequence (P13726 33-295 partner): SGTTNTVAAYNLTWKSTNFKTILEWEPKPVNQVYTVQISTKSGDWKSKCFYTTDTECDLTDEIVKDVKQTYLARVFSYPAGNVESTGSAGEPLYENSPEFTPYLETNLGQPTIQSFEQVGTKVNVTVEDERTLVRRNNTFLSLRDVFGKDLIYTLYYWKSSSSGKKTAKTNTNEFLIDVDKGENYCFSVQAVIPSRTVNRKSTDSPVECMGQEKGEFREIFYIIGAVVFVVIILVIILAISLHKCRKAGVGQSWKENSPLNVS
T4 sequence (P03952 391-638 limits assumed, species assumed): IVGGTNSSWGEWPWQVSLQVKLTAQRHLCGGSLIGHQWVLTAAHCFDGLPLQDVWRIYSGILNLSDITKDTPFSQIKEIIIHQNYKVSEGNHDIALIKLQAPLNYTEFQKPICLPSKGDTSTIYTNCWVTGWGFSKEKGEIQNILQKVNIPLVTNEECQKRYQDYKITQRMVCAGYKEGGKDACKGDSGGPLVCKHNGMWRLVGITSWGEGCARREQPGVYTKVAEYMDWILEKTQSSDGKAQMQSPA
T4 sequence (P03952 20-390 partner limits assumed, species assumed): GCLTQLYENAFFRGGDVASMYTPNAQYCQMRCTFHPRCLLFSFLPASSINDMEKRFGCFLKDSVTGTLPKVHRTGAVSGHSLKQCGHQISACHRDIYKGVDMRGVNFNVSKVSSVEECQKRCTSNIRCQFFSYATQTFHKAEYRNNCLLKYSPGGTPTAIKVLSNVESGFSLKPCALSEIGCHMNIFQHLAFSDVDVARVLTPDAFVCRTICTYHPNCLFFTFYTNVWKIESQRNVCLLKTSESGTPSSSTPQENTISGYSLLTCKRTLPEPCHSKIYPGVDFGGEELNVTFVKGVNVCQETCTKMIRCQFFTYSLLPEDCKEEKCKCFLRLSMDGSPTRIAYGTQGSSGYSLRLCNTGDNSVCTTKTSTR
S. aureus V8 protease, sequence (P0C1U8 69-336): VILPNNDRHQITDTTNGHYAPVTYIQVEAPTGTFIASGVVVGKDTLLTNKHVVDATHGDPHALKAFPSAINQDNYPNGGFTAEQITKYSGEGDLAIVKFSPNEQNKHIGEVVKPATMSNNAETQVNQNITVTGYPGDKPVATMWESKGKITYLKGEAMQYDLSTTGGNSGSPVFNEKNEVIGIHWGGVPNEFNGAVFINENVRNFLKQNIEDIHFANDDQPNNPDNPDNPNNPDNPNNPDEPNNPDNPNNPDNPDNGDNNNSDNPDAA
T7 sequence (P00772 27-266): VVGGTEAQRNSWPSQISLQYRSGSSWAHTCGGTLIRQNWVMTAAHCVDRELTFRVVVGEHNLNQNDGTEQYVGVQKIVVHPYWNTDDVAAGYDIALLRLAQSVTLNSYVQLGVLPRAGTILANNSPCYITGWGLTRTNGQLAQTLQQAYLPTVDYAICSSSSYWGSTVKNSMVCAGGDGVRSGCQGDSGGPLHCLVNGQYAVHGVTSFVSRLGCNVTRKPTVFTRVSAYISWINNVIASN
T2 sequence (P00747 581-810 limits assumed): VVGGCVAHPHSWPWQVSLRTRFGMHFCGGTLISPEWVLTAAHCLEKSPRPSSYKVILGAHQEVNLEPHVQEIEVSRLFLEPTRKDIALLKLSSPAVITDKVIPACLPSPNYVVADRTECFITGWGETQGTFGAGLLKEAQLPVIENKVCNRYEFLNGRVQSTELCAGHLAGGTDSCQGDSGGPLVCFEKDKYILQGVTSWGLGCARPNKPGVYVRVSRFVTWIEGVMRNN
T2 sequence (P00747 97-580 partner limits assumed): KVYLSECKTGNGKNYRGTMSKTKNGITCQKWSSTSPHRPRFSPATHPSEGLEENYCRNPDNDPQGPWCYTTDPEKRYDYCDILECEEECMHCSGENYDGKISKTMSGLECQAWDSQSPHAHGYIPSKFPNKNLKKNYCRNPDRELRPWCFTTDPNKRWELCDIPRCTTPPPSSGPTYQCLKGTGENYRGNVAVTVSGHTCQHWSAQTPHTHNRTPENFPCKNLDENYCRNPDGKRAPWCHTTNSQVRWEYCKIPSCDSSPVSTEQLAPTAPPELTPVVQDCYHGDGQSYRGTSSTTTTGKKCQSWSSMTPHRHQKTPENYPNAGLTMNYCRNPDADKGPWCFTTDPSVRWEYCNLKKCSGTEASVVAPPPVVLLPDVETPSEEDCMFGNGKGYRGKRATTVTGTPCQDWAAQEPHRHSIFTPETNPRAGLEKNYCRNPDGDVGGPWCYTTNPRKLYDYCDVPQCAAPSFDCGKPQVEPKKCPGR

Substance: TAP-1: 60 amino acid Factor Xa inhibitor protein purified from Ornithodoros moubata tick extracts (YNRLCIKPRDWIDECDSNEGGERAYFRNGKGGCDSFWICPEDHTGADYYSSYRDCFNACI; UniProt P17726 1-60, looked up)
- Clotting Time, Prothrombin Time (Normal Human Plasma [1]; 1.15 pMol TAP-1, Normal Human Plasma): 15.1 s
- Clotting Time, Prothrombin Time (Normal Human Plasma [1]; [6]): 28.9 s
- Clotting Time, Prothrombin Time (Normal Human Plasma [1]; [7]): 31.2 s
- Clotting Time, Prothrombin Time (Normal Human Plasma [1]; [8]): 48.7 s
- inhibition of urokinase (urokinase): no inhibition
- inhibition of plasmin (plasmin): no inhibition
- Clotting Time, Activated Partial Thromboplastin Time (Normal Human Plasma [2]; [6]): 45.2 s
- Clotting Time, Activated Partial Thromboplastin Time (Normal Human Plasma [2]; [7]): 57.7 s
- Clotting Time, Activated Partial Thromboplastin Time (Normal Human Plasma [2]; [8]): 92.2 s
- Clotting Time, Modified Stypven Time (Normal Human Plasma [3]; [6]): 17.7 s
- Clotting Time, Modified Stypven Time (Normal Human Plasma [3]; [7]): 31.2 s
- Clotting Time, Modified Stypven Time (Normal Human Plasma [3]; [8]): 65.1 s
- effect of Ca++ on the ability to inhibit Factor Xa (human Factor Xa; inclusion of 1-5 mM Ca++): no effect
- Ki (human Factor Xa): 0.58 nM
- inhibition of kallikrein (Plasma kallikrein): no inhibition
- inhibition of chymotrypsin (chymotrypsin): no inhibition
- inhibition of S. aureus V8 protease (S. aureus V8 protease): no inhibition
- inhibition of thrombin (thrombin): no inhibition
- inhibition of elastase (pancreatic elastase): no inhibition
- inhibition of Factor VIIa (Factor VIIa): no inhibition
- inhibition of trypsin (trypsin): no inhibition

Substance: recombinant TAP-1: TAP-1 expressed from a synthetic gene in S. cerevisiae and purified from broth (YNRLCIKPRDWIDECDSNEGGERAYFRNGKGGCDSFWICPEDHTGADYYSSYRDCFNACI; UniProt P17726 1-60, looked up)
- effect on prothrombin time (prothrombin time): did not significantly increase
- Clot formation (normalized clot value) ([4]; i.v. infusion 7 μg/kg/min for 60 minutes): 27.0±7.5%
- Clot formation (normalized clot value) ([4]; i.v. infusion 37 μg/kg/min for 60 minutes): 7.9±2.0%
- Clot formation (normalized clot value) ([4]; i.v. infusion 64 μg/kg/min for 60 minutes): 1.9±1.0%
- Ki (human Factor Xa): 0.2 nM
- effect on activated partial thromboplastin time [5]: did not significantly increase
